Assay results published in patent US20040180931A1, “Methods for treating Parkinson's disease” (priority 2000, published 2004).

Columns and labels:
Assay type in all cases: in vivo, humans
[1] = system: patients with Parkinson's disease who were suffering from dementia; assay: Mini-Mental State Examination (MMSE) in randomized, placebo-controlled, double-blind crossover study; settings: 5 mg or 10 mg donepezil, 10 weeks, start of treatment to week 10
Protocol: (§1) A randomized, placebo-controlled, double-blind crossover study was conducted with fourteen patients with Parkinson's disease (13 men, 1 woman; mean age 78 (SD 3.6) years; mean duration of illness 11.4 (SD 4.9) years) who had developed cognitive impairments (mean Mini-Mental State Examination (MMSE) score 20.7 (SD 3.3)) 8.6 (SD 5.8) years after the onset of parkinsonism. […] At weeks 6 and 10 the patients completed a battery of cognitive tests. Cognitive impairments were measured using the MMSE and the CIBIC, a 7-point scale of the clinician's interview-based impression of change based upon information scored independently of the MMSE. Parkinsonism was assessed using the Unified Parkinson's Disease Rating Scale (UPDRS).

[2] = system: patients with Parkinson's disease who were suffering from dementia; assay: CIBIC+ (clinician's interview-based impression of change) in randomized, placebo-controlled, double-blind crossover study
Protocol: as §1

[3] = system: patients with Parkinson's disease and mild or moderate dementia; assay: Overall efficacy / cognitive function in crossover study
Protocol: as §1

With `COc1cc2c(cc1OC)C(=O)C(CC1CCN(Cc3ccccc3)CC1)C2` (stereo not drawn) [donepezil, 1-benzyl-4-((5,6-dimethoxy-1-indanon)-2-yl)methylpiperidine] the “mean MMSE score difference from baseline to week 10” value [1] was 2.1 points, the “mean CIBIC+ score at week 10” value ([2]; 5 mg or 10 mg donepezil, week 10, 7-point scale) was 3.3 and the “CIBIC+ response rate (improvement, CIBIC+ score of 3 or lower)” value ([2]; 10 weeks of treatment) was 42%. The “number of patients with improvement (CIBIC+ score of 3 or lower)” value ([2]; 10 weeks of treatment) was 5 patients, the “all efficacy measures versus placebo” value ([3]; in vivo) was “numerical benefit” and the cognitive function ([3]; treated for 10 weeks) was “improvement”.
